Source: patent publication US20200254014A1, “ANTIMICROBIAL COMPOSITIONS AND METHODS FOR THEIR PRODUCTION” (National University of Ireland, Galway, priority 2013, published 2020)

What was measured:
E. coli ATCC 25922 [1] = assay: MIC of iodine based antimicrobials in absence and presence of organic material; format: cell-based
Excerpt: As a comparison, PVP-1 or povidone iodine, used frequently in hospital setting as a topical antiseptic, was used as a source of free iodine (12).

E. coli ATCC 25922 [2] = format: cell-based
Method: In an attempt to induce a tolerance to an antimicrobial, the micro-broth dilution method was utilised, with repeated passaging, with E. coli ATCC 25922 and a number of antibiotics, as well as the composition of the invention containing hydrogen peroxide and potassium iodide. […] Doubling dilutions of antimicrobial compositions were made using a 96 well plate. The well contents were inoculated with 10^4 cfu ml^−1 E. coli ATCC 25922 and allowed to incubate.

S. aureus BH1CC (MRSA) = settings: strain isolated from Beaumont hospital; cited from earlier work

OO [Example H2O2, hydrogen peroxide]
MIC (E. coli ATCC 25922 [1]; broth): 20 to 40 µg/mL

C[C@H]1COc2c(N3CCN(C)CC3)c(F)cc3c(=O)c(C(=O)O)cn1c23 [levofloxacin]
increase in tolerance versus pre-passaging (E. coli ATCC 25922 [2]; after 10 passages): 8 times

Cc1onc(-c2ccccc2)c1C(=O)N[C@@H]1C(=O)N2[C@@H]1SC(C)(C)[C@@H]2C(=O)O [oxacillin]
oxacillin MIC (S. aureus BH1CC (MRSA)): > 256 µg/mL

polymyxin B
resistance of the organism after passaging in presence of the antibiotic (E. coli ATCC 25922 [2]; after only 8 passages): completely resistant

polyvinylpyrrilidone, PVP-I, also known as povidone-iodine
MIC (E. coli ATCC 25922 [1]; in LB): >250 µg/mL
MIC (E. coli ATCC 25922 [1]; milk): >250 µg/mL
MIC (E. coli ATCC 25922 [1]; saline): 1 to 2 µg/mL
